According to patent US12187720B2, “Compounds for treatment of cancer” (ONCTERNAL THERAPEUTICS, INC., priority 2010, dated 2025):
Counter-ions that a name gives are not always drawn. Like-named read-outs stand apart in the source and are kept apart here.

Columns and labels:
[1] = Metabolic stability in dog liver microsomes; format: in vitro ADME; details: for half-life at 0.5 μM: dog, pH 7.4
[2] = Metabolic stability in monkey liver microsomes; format: in vitro ADME; details: for half-life at 0.5 μM: monkey, pH 7.4
[3] = mouse, in vivo, ip
[4] = Metabolic stability in rat liver microsomes; format: in vitro ADME; details: for half-life at 0.5 μM: rat, liver microsomes, pH 7.4
[5] = tested on: PC-3 xenografts
Source text: (§1) In vivo antitumor activity [tumor growth inhibition (% T/C), tumor growth delay (T-C value), and tumor cell kill (total log cell kill)].

[6] = Metabolic stability in human liver microsomes; details: for half-life at 0.5 μM: human, liver microsomes, pH 7.4
[7] = Pharmacokinetic study in ICR mice; details: Mice, 15 mg/kg i.v.
[8] = tested on: PC-3 cells; test: Apoptosis detection by ELISA (cytoplasmic DNA-histone complexes), PC-3 cells; format: cell-based, human; details: PC-3 and A375 cells, 24 h
Source text: The levels of DNA-histone complexes were used to represent cell apoptosis.
Apoptosis detection by ELISA. Quantification of the enrichment of mono- and oligonucleosomes in the cytoplasm was used to determine the ability of the compounds to induce apoptosis (cell death detection ELISA PLUS, Roche, Germany) following the manufacturer's instructions.

[9] = tested on: A375 human melanoma xenograft; test: In vivo efficacy, A375 human melanoma xenograft in mice
Procedure: DTIC at 60 mg/kg was used as a positive control again.
PC-3 and A375 tumor xenograft studies.
as §1

[10] = tested on: MES-SA/DX5; test: SRB growth inhibition assay, P-gp over-expressing MES-SA/DX5 cells; format: cell-based; details: for Resistance factor: ratio of IC50 MES-SA/DX5 to MES-SA
[11] = Metabolic stability in mouse liver microsomes; format: in vitro ADME; details: for half-life at 0.5 μM: mouse, liver microsomes
[12] = in vitro; details: human, microsomes, pH 7.4
[13] = Metabolic stability in guinea pig liver microsomes; format: in vitro ADME; details: pH 7.4, phase I pathway, read-out: T ½ (min), guinea pig liver microsomes
[14] = in vivo; details: male, ICR, mouse, plasma, 5 mg/kg; for Vd / clearance: iv
[15] = Metabolic stability in hamster liver microsomes; format: in vitro ADME; details: pH 7.4, phase I pathway, read-out: T ½ (min), hamster liver microsomes
[16] = Metabolic stability in rabbit liver microsomes; format: in vitro ADME; details: pH 7.4, phase I pathway, read-out: T ½ (min), rabbit liver microsomes
[17] = tested on: LNCaP; test: SRB cytotoxicity assay, LNCaP prostate cancer cells; format: cell-based, human; details: Homo sapiens, LNCaP
Source text: (§2) Cells were stained with SRB solution.

[18] = tested on: B16-F1; test: SRB cytotoxicity assay, B16-F1 mouse melanoma cells; format: cell-based; details: read-out: IC50 ± SEM B16-F1 (converted)
[19] = tested on: PPC-1; test: SRB cytotoxicity assay, PPC-1 prostate cancer cells; format: cell-based, human; details: Homo sapiens, PPC-1
Source text: as §2

[20] = tested on: PC-3; test: SRB cytotoxicity assay, PC-3 prostate cancer cells; format: cell-based, human; details: Homo sapiens, PC-3
Source text: as §2

[21] = tested on: A375; test: SRB cytotoxicity assay, A375 human melanoma cells; format: cell-based; details: Homo sapiens, A-375, 48 h, read-out: IC50 ± SEM A375
[22] = tested on: DU 145; test: SRB cytotoxicity assay, DU 145 prostate cancer cells; format: cell-based; details: Homo sapiens
Source text: as §2

[23] = tested on: WM-164; test: SRB cytotoxicity assay, WM-164 human melanoma cells; format: cell-based; details: read-out: IC50 ± SEM WM164 (converted)
[24] = tested on: B16-F1 melanoma tumors; test: In vivo efficacy, B16-F1 melanoma in C57/BL mice; parameters: species or system mouse; details: 13 days, C57BL/6 mice
[25] = tested on: PC-3/TxR; test: cells; details: Homo sapiens, PC3-TxR, read-out: inhibitory effects PC3/TXR
[26] = tested on: DU145/TXR; test: SRB growth inhibition, paclitaxel-resistant DU145/TXR cells; format: cell-based; details: Homo sapiens, DU-145; Table 13A; read-out: inhibitory effects DU145/TXR
[27] = dog liver microsomes, Table 20, read-out: Half life in Dog liver microsome
[28] = monkey liver microsomes, Table 20, read-out: Half life in Monkey liver microsome
[29] = Table 20, read-out: Half life in Rat liver microsome
[30] = pH 7.4, Table 20, read-out: Half life in Mouse liver microsome
[31] = liver microsomes, phase I pathway, read-out: T ½ (min), dog liver microsomes
[32] = liver microsomes, phase I pathway, read-out: T ½ (min), monkey liver microsomes
[33] = phase I pathway, read-out: T ½ (min), rat liver microsomes
[34] = pH 7.4, phase I pathway, read-out: T ½ (min), mouse liver microsomes
[35] = Table 13A, read-out: inhibitory effects LNCaP
[36] = Table 13A, read-out: inhibitory effects PPC1
[37] = Table 13A, read-out: inhibitory effects PC3
[38] = Table 13A, read-out: inhibitory effects DU145

## COc1cc(C(=O)c2csc(-c3ccc(F)cc3)n2)cc(OC)c1OC [2k]
[1]; Table 20
  Half life in Dog liver microsome: 16 min
[2]; Table 20
  Half life in Monkey liver microsome: <5 min
[3]
  dose that did not cause greater than 10% loss of body weight: ≤ 15 mg/kg
[4]; Table 20
  Half life in Rat liver microsome: 32 min
[5]; 5 mg/kg i.p.
  % T/C: 21%
[5]; 15 mg/kg i.p.
  % T/C: 24%
[5]; Prostate (PC-3) xenograft, 5 mg/kg i.p., 21 days
  % T/C: 21%
[5]; Prostate (PC-3) xenograft, 15 mg/kg i.p., 21 days
  % T/C: 24%
[5]; mouse, in vivo
  mice that lost more than 15% body weight: 2 out of 7
[6]; Table 20
  half life in human liver microsome: 10 min
[7]
  AUC: 22000 ng·h/mL
  CL: 112 mL/min/kg
  Vss: 6.6 L/kg
[8]
  concentration inducing apoptosis: 50 nM
[9]; Melanoma (A375) xenograft, 15 mg/kg i.p.
  T-C (tumor growth delay): 11 days
[9]; Melanoma (A375) xenograft, 15 mg/kg i.p., doubling time 4.6 d
  Total log cell kill: 0.7
[10]; Table 6, read-out: IC50 ± SEM MES-SA/Dx5
  IC50: 19 nM
[11]; Table 20
  Half life in Mouse liver microsome: 9 min

## COc1cc(C(=O)c2csc(-c3ccc(O)cc3)n2)cc(OC)c1OC [2l, (2-(4-Hydroxyphenyl)thiazol-4-yl)(3,4,5-trimethoxyphenyl)methanone]
[1]; [27]
  half-life at 0.5 μM: 30 min
[2]; [28]
  half-life at 0.5 μM: 8 min
[4]; [29]
  half-life at 0.5 μM: 49 min
[12]
  half-life at 0.5 μM: 20 min
[11]; [30]
  half-life at 0.5 μM: 11 min

## COc1cc(-c2nccc3ccc(-c4ccc5[nH]ccc5c4)cc23)cc(OC)c1OC [6a]
[1]; [27]
  half-life at 0.5 μM: 13 min
[1]; [31]
  half-life at 0.5 μM: 13 min
[2]; [32]
  half-life at 0.5 μM: 16 min
[2]; [28]
  half-life at 0.5 μM: 16 min
[4]; [33]
  half-life at 0.5 μM: 12 min
[6]
  half-life at 0.5 μM: 32 min
[13]
  half-life at 0.5 μM: 15 min
[14]; ip
  AUC: 983 ng·h/mL
  Cmax: 678 ng/mL
  bioavailability: 60%
[14]
  Vd: 2.3 L/kg
  clearance: 51 mL/min/kg
[14]; po
  AUC: 83.3 ng·h/mL
  Cmax: 6.7 ng/mL
  bioavailability: 5%
[15]
  half-life at 0.5 μM: 6 min
[16]
  half-life at 0.5 μM: 17 min
[10]
  Resistance factor: 1.5
[11]; [30]
  half-life at 0.5 μM: 3.43 min
[11]; [34]
  half-life at 0.5 μM: 3.4 min

## c1cc2ccc(-c3ccc4[nH]ccc4c3)cc2c(-c2ccc3[nH]ccc3c2)n1 [6b, 1,7-Bis-(1H-indol-5-yl)-isoquinoline]
[1]; [27]
  half-life at 0.5 μM: 30 min
[1]; [31]
  half-life at 0.5 μM: 30 min
[2]; [32]
  half-life at 0.5 μM: 13 min
[2]; [28]
  half-life at 0.5 μM: 13 min
[4]; [33]
  half-life at 0.5 μM: 9 min
[6]
  half-life at 0.5 μM: 40 min
[13]
  half-life at 0.5 μM: 15 min
[14]; ip
  AUC: 3630 ng·h/mL
  Cmax: 1500 ng/mL
  bioavailability: 60%
[14]
  Vd: 1.1 L/kg
  clearance: 14 mL/min/kg
[14]; po
  AUC: 117 ng·h/mL
  Cmax: 50 ng/mL
  bioavailability: 2.1%
[15]
  half-life at 0.5 μM: 11 min
[16]
  half-life at 0.5 μM: 16 min
[10]
  Resistance factor: 1.4
[11]; [30]
  half-life at 0.5 μM: 10 min
[11]; [34]
  half-life at 0.5 μM: 10 min

## Fc1ccc(-c2nccc3ccc(-c4ccc5[nH]ccc5c4)cc23)cc1 [6c, 1-(4-Fluoro-phenyl)-7-(1H-indol-5-yl)-isoquinoline]
[1]; [27]
  half-life at 0.5 μM: 29 min
[1]; [31]
  half-life at 0.5 μM: 29 min
[2]; [32]
  half-life at 0.5 μM: 9 min
[2]; [28]
  half-life at 0.5 μM: 9 min
[4]; [33]
  half-life at 0.5 μM: 14 min
[6]
  half-life at 0.5 μM: 47 min
[13]
  half-life at 0.5 μM: 8 min
[14]; ip
  AUC: 917 ng·h/mL
  Cmax: 1100 ng/mL
  bioavailability: 33%
[14]
  Vd: 1.8 L/kg
  clearance: 30 mL/min/kg
[14]; po
  AUC: 66.7 ng·h/mL
  Cmax: 50 ng/mL
  bioavailability: 2.7%
[15]
  half-life at 0.5 μM: 20 min
[16]
  half-life at 0.5 μM: 16 min
[11]; [30]
  half-life at 0.5 μM: 13 min
[11]; [34]
  half-life at 0.5 μM: 13 min

## O=C(c1cccc(F)c1)c1cn(S(=O)(=O)c2ccccc2)c(-c2ccccc2)n1 [11ag, (3-fluorophenyl)(2-phenyl-1-(phenylsulfonyl)-1H-imidazol-4-yl)methanone]
[17]; Table 13, 96 h, read-out: IC50 ± SEM LNCaP
  IC50: > 10000 nM
[18]; Mus musculus, B16-F1, 48 h, Table 13, 48 h
  IC50: > 10000 nM
[19]; Table 13, 96 h, read-out: IC50 ± SEM PPC-1
  IC50: > 10000 nM
[20]; Table 13, 96 h, read-out: IC50 ± SEM PC-3
  IC50: > 10000 nM
[21]; Table 13, 48 h
  IC50: > 10000 nM
[22]; Table 13, 96 h, read-out: IC50 ± SEM Du 145
  IC50: > 10000 nM
[23]; Homo sapiens, WM164, 48 h, Table 13, 48 h
  IC50: > 10000 nM

## COc1cc(C(=O)c2cn(C)c(-c3ccc(C)cc3)n2)cc(OC)c1OC [12dab, (1-methyl-2-(p-tolyl)-1H-imidazol-4-yl)(3,4,5-trimethoxyphenyl)methanone]
[1]; [27]
  half-life at 0.5 μM: 46 min
[4]; [29]
  half-life at 0.5 μM: 12 min
[12]
  half-life at 0.5 μM: 21 min
[11]; [30]
  half-life at 0.5 μM: < 5 min

## Cc1ccc(-c2nc(C(=O)c3ccc(F)cc3)c[nH]2)cc1 [12db-HCl, (4-fluorophenyl)(2-(p-tolyl)-1H-imidazol-4-yl)methanone hydrochloride]
[18]; Table 12, 48 h, hydrochloride
  IC50: 297 nM
[23]; Table 12, 48 h, hydrochloride
  IC50: 112 nM

## COc1cc(-c2nc(C(=O)c3ccc(F)cc3)c[nH]2)cc(OC)c1OC [12eb, (4-fluorophenyl)(2-(3,4,5-trimethoxyphenyl)-1H-imidazol-4-yl)methanone]
[18]; Mus musculus, B16-F1, 48 h, Table 12, 48 h
  IC50: > 10000 nM
[21]; Table 12, 48 h
  IC50: > 10000 nM
[23]; Homo sapiens, WM164, 48 h, Table 12, 48 h
  IC50: > 10000 nM

## O=C(c1ccc(F)cc1)c1c[nH]c(-c2ccc(Cl)cc2)n1 [12fb, (2-(4-chlorophenyl)-1H-imidazol-4-yl)(4-fluorophenyl)methanone]
[9]; 25 mg/kg, SHO mice
  tolerability: well tolerated
[24]; 45 mg/kg
  tumor growth inhibition (TGI value): 82%
[12]
  half-life at 0.5 μM: 37 min

## COc1cc(C(=O)c2nc(-c3ccc(Cl)cc3)c[nH]2)cc(OC)c1OC [70c, (4-(4-chlorophenyl)-1H-imidazol-2-yl)(3,4,5-trimethoxyphenyl)methanone]
[17]; [35]
  IC50: 22 nM
[19]; [36]
  IC50: 51 nM
[20]; [37]
  IC50: 64 nM
[22]; [38]
  IC50: 125 nM
[25]
  IC50: 25 nM

## COc1cc(C(=O)c2nc(-c3ccc(C(F)(F)F)cc3)c[nH]2)cc(OC)c1OC [70e, (4-(4-(trifluoromethyl)phenyl)-1H-imidazol-2-yl)(3,4,5-trimethoxyphenyl)methanone]
[17]; [35]
  IC50: 47 nM
[19]; [36]
  IC50: 75 nM
[20]; [37]
  IC50: 93 nM
[22]; [38]
  IC50: 210 nM
[26]
  IC50: 202 nM
[25]
  IC50: 46 nM

## COc1ccc(-c2c[nH]c(C(=O)c3cc(OC)c(OC)c(OC)c3)n2)cc1 [70g, (4-(4-methoxyphenyl)-1H-imidazol-2-yl)(3,4,5-trimethoxyphenyl)methanone]
[19]; [36]
  IC50: 54 nM
[20]; [37]
  IC50: 61 nM
[22]; [38]
  IC50: 210 nM
[26]
  IC50: 111 nM
[25]
  IC50: 25 nM

## CN(C)/N=N/c1[nH]cnc1C(N)=O [DTIC, reference compound]
[9]; 60 mg/kg, 31 days, SHO mice
  tumor growth inhibition (TGI value): 52%
[24]; 60 mg/kg
  tumor growth inhibition (TGI value): 51%
